For data set [1] the following is noted: Sprague Dawley, rat, in vivo, po, 10 mg/kg.
Description: (§1) Plasma, brain, and CSF samples were analyzed at various time points over a 24 hour period.
The nature of the next data set: IV pharmacokinetics. The class given is in vivo, Sprague Dawley rats. The following applies: rat, 2 mg/kg, normal saline (compounds marked * in 1% NMP and 99% normal saline). From the text: The table below summarizes the results of the IV pharmacokinetics.
A further data set can be described thus: in vivo. The following applies: Sprague Dawley, rat, po, 10 mg/kg.

Molecules are shown by their SMILES. Where two headings read alike, the source gives them in different places.

Description for in vivo: as §1

A word on the Cmax: it is the highest concentration seen after dosing. Broadly, the Tmax is the time from dosing to the highest level. As usually defined, the Vss is a proportionality between amount in the body and measured concentration, not a real space. A lower Vss goes with confinement near the circulation. Turning to `C[C@@H](O)[C@H](N)C(=O)N1CCN(C)CC12CNC2=O` (single isomer, unassigned) [EJ-2, 5-(L-Threonyl)-8-Methyl-2,5,8-Triazaspiro[3.5]Nonan-1-One], in data set [1], the “% F” value was found to be 9%, the AUClast stood at 811.97 ng·h/mL, the Cmax is 201.12 ng/mL and the Tmax amounted to 1.33 h. Also, in the data set “IV pharmacokinetics”, the AUClast was 1737 ng·h/mL, the C0 is recorded as 3415.56 ng/mL, the Cl stood at 18.95 mL/min/kg and the T1/2 was found to be 1.59 h. The compound also came in with a Vss in the data set “IV pharmacokinetics” of 1.35 L/kg.
For orientation: AUC(0-t) means exposure summed from dosing to a finite time, without extrapolation to infinity. A lower AUC(0-t) goes with less exposure. Usually clearance stands for a measure of how efficiently the substance is removed, as volume per time. A high value points to efficient removal. For orientation: half-life means how long it takes for the measured level to halve. The low end stands for fast loss, the high end for slow loss. Take `C[C@@H](O)[C@H](N)C(=O)N1CCN(C)CC12CNC2=O` (single isomer, unassigned) [EJ-1, 5-(L-Threonyl)-8-Methyl-2,5,8-Triazaspiro[3.5]Nonan-1-One]: the AUC(0-t) in “in vivo” (AUClast) stood at 568 ng·h/mL. The same compound returned a Cmax in “in vivo” (Cmax) of 186 ng/mL. In the data set “in vivo” (Tmax), the Tmax is 0.75 h. Moreover, in data set [1], the “% F” value is listed as 4%. In “IV pharmacokinetics” (Sprague Dawley, in vivo, iv), this compound gave an AUC(0-t) of 3160 ng·h/mL, a clearance of 10.5 mL/min/kg and a half-life of 1.3 h. Further, the C0 in the data set “IV pharmacokinetics” (Sprague Dawley, in vivo, iv, read-out: C0) is 4030 ng/mL. Further, the Vss in “IV pharmacokinetics” was 0.62 L/kg.
